# Legend:
# CCK = test: Capacity to antagonize CCK, relative to the compound of Formula I; conditions: based on the activity of the compound of Formula I (1 x)
# Description: The minor components A-D have also been tested for their capacity to antagonize CCK. Based on the activity of the compound of Formula I, the minor components relative activities are: […]
# [1] = molecular target: T1, isolated longitudinal muscle of guinea pig ileum (CCK-8) (Cavia porcellus, UniProt Q63931); test: Isolated longitudinal muscle of guinea pig ileum, antagonism of CCK-8 induced contraction; set-up: species or system Male Hartley guinea pigs
# T1 construct: Longitudinal muscle strips with attached nerve plexus were prepared; from tissue; host or cells: guinea pig ileum longitudinal muscle with attached nerve plexus
# T1 sequence (Q63931 1-430): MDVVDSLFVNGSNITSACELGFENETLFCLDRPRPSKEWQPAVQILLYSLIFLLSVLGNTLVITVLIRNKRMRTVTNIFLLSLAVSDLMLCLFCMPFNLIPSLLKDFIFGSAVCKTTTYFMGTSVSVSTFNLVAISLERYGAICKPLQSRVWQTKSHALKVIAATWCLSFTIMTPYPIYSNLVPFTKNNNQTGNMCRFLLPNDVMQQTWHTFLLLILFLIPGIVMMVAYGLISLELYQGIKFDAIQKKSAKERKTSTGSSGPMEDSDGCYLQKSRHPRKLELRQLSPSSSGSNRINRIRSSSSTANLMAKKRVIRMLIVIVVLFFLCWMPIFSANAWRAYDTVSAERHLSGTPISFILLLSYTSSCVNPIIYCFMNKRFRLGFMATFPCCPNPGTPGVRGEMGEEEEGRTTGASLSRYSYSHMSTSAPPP
# Procedure: Longitudinal muscle strips with attached nerve plexus were prepared as described previously (Brit J. Pharmac. 23:; 356-363, 1964; J. Physiol. 194: 13-33, 1969). Male Hartley guinea pigs were decapitated and the ileum was removed (10 cm of the terminal ileum was discarded and the adjacent 20 cm piece was used). A piece (10 cm) of the ileum was stretched on a glass pipette. Using a cotton applicator to stroke tangently away from the mesentery attachment at one end, the longitudinal muscle was separated from the underlying circular muscle. The longitudinal muscle was then tied to a thread and by gently pulling, stripped away from the entire muscle. A piece of approximately 2 cm was suspended in 5 ml organ bath containing Krebs solution and bubbled with 95% O2 and 5% CO2 at 37° C. under 0.5 g tension. CCK-8 was added cumulatively to the baths and EC50 and pA2 values determined as described in the gall bladder preparation (above).
# [2] = Solubility characteristics; type: physicochemical
# CCK receptor = molecular target: T2, CCK receptor (Rattus norvegicus, UniProt P30551); test: CCK receptor binding (inhibition of specific 125I-CCK-33 binding to whole pancreas membranes); set-up: species or system Male Sprague-Dawley rats; conditions: for IC50: rat pancreas, pH 7.7, 37° C., 30 minutes; for effect on the 125I-CCK receptor binding assay: added protease inhibitors, 1.2 mM phenylmethane sulfonyl fluoride, 0.5 mM o-phenanthroline in assay buffer
# T2 construct: The whole pancreas was dissected free of fat tissue and was homogenized; from tissue; host or cells: rat whole pancreas membranes
# T2 sequence (P30551 1-444): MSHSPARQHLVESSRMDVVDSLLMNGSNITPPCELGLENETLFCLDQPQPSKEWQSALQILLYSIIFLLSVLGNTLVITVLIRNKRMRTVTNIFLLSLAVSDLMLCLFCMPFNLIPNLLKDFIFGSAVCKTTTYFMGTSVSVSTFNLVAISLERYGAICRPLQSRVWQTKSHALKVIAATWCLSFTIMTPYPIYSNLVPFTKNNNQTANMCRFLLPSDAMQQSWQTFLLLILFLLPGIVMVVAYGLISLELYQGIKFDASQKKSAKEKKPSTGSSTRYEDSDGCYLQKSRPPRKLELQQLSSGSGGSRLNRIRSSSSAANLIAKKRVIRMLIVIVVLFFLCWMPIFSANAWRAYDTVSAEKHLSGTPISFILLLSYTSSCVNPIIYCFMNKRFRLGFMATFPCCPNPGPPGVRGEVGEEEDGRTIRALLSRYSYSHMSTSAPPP
# Procedure: CCK-33 was radiolabeled with ^125 I-Bolton Hunter reagent (2000 Ci/mmole) as described by Sankara et al. (J. Biol. Chem. 254: 9349-9351, 1979). Receptor binding was performed according to Innis and Snyder (Proc. Natl. Acad. Sci. 77: 6917-6921, 1980) with the minor modification of adding the additional protease inhibitors, phenylmethane sulfonyl fluoride and o-phenanthroline. The latter two compounds have no effect of the ^125 I-CCK receptor binding assay.
# Male Sprague-Dawley rats (200-350 g) were sacrificed by decapitation. The whole pancreas was dissected free of fat tissue and was homogenized in 20 volumes of ice-cold 50 mM, Tris HCl (pH 7.7 at 25° C.) with a Brinkmann Polytron PT 10. The homogenates were centrifuged at 48,000 g for 10 min. Pellets were resuspended in Tris Buffer, centrifuged as above and resuspended in 200 volumes of binding assay buffer (50 mM Tris HCl, pH 7.7 at 25° C., 5 mM dithiothreitol, 0.1 mM bacitracin, 1.2 mM phenylmethane sulfonyl fluoride and 0.5 mM o-phenanthroline). For the binding assay, 25 μl of buffer (for total binding) or unlabeled CCK-8 sulfate to give a final concentration of 1 μM (for nonspecific binding) or the compound of Formula I (for determination inhibition of ^125 I-CCK binding) and 25 μl of ^125 I-CCK-33 (30,000-40,000 cpm) were added to 450 μl of the membrane suspensions in microfuge tubes. All assays were run in duplicate or triplicate. The reaction mixtures were incubated at 37° C. for 30 minutes and centrifuged in a Beckman Microfuge (4 minutes) immediately after adding 1 ml of ice-cold incubation buffer. The supernatant was aspirated and discarded, pellets were counted with a Beckman gamma 5000. For Scatchard analysis (Ann. N.Y. Acad. Sci. 51: 660, 1949), ^125 I-CCK-33 was progressively diluted with increasing concentrations of CCK-33.
# [3] = molecular target: T3, isolated guinea pig gall bladder (CCK-8) (Cavia porcellus, UniProt Q63931); test: Isolated guinea pig gall bladder, antagonism of CCK-8 induced contraction; set-up: species or system Male Hartley guinea pigs
# T3 construct: The whole gall bladder was dissected free from adjacent tissues; from tissue; host or cells: guinea pig gall bladder
# T3 sequence (Q63931 1-430): T1 sequence (Q63931 1-430)
# Procedure: Male Hartley guinea pigs (400-600 g) were sacrificed by decapitation. The whole gall bladder was dissected free from adjacent tissues and its content gently squeezed out. The whole bladder was suspended in 5 ml organ bath under 1 g tension. The organ bath contained a Kreb's bicarbonate solution (NaCl 118 mM, KCl 4.75 mM, CaCl 2.54 mM, KH2 PO4 1.19 mM, Mg SO4 1.2 mM, NaHCO3 25 mM and dextrose 11 mM) maintained at 32° C. and bubbled with 95% O2 and 5% CO2. Isometric contractions were recorded using Statham (60 g; 0.12 mm) strain gauges and a Hewlett-Packard (77588) recorder. The tissues were washed every 10 minutes for 1 hr to obtain equilibrium prior to the beginning of the study. CCK-8 was added cumulatively to the baths and EC50 's determined using regression analysis. After washout (every 10 minutes for 1 hr), the compound of Formula I was added at least 5 minutes before the addition of CCK-8 and the EC50 of CCK-8 in the presence of the compound of Formula I similarly determined. The PA2 values and slope were obtained from regression analysis of a Schild plot (Brit. J. Pharmacol. 14: 48-58, 1959) using three concentrations of the compound of Formula I and 3-4 tissues at each concentration.
compound,measurement,setting,value
O=C1c2ccccc2-n2c(nc3ccccc3c2=O)[C@@H]2C[C@]3(O)c4ccccc4N[C@@H]3N12 [Component A],relative activity to antagonize CCK,CCK,1/70
O=C1NC(Cc2c[nH]c3ccccc23)c2nc3ccccc3c(=O)n2-c2ccccc21 (stereo not drawn) [Component B],relative activity to antagonize CCK,CCK,1/7
O=C1Nc2ccccc2-c2nc3ccccc3c(=O)n2C1Cc1c[nH]c2ccccc12 (stereo not drawn) [Component C],relative activity to antagonize CCK,CCK,1/30
CC(C)C[C@H]1C(=O)N2c3ccccc3[C@@](O)(C[C@@H]3NC(=O)c4ccccc4-n4c3nc3ccccc3c4=O)[C@H]2N1O [Component D],relative activity to antagonize CCK,CCK,5 x
CC(C)C[C@@H]1N[C@H]2N(C1=O)c1ccccc1[C@@]2(O)C[C@@H]1NC(=O)c2ccccc2-n2c1nc1ccccc1c2=O [Formula I],mode of antagonism,[1],competitive antagonism of CCK
same,effect on CCK-8 dose-response,[1]; 1.3-13 μM,concentration dependent parallel shift to the right of the CCK-8 dose-response without change in the maximal contractile response
same,slope of the Schild plot,[1]; CCK-8,0.89±0.20
same,Kb,"[1]; CCK-8, read-out: pA2 value (Schild plot) (converted)",398 nM
same,Ki,"[1]; from Schild plot pA2, read-out: Ki corresponding to pA2 (converted)",400 nM
same,relative activity to antagonize CCK,CCK,1 x
same,solubility: soluble in,"[2]; CHCl3, MeOH, EtOH, acetone, DMSO","soluble in: CHCl3, MeOH, EtOH, acetone, DMSO"
same,solubility: insoluble in,"[2]; H2O, hexane, pet. ether","insoluble in: H2 O, hexane, pet. ether"
same,effect on KD (dissociation constant) and Bmax (maximum receptor number) of 125I-CCK-33,"CCK receptor; Scatchard analysis, 1.3 μM",increased the KD (dissociation constant) without affecting the Bmax (maximum receptor number)
same,mode of inhibition of specific 125I-CCK-33 receptor binding,"CCK receptor; Scatchard analysis, absence and presence of 1.3 μM",competitively inhibited specific ^125 I-CCK-33 receptor binding
same,Ki,"CCK receptor; estimated, 125I-CCK-33 receptor binding, read-out: Ki value (dissociation constant of inhibitor)",900 nM
same,IC50,CCK receptor,1310 nM
same,IC50,CCK receptor; printed in parentheses,1300 nM
same,effect on CCK-8 dose-response,[3]; 1.3-13 μM,concentration dependent parallel shift to the right of the CCK-8 dose-response without change in the maximal contractile response
same,mode of antagonism,[3]; CCK-8,competitive antagonist of CCK-8
same,slope of the Schild plot,[3]; CCK-8,0.95±0.19
same,Kb,"[3]; CCK-8, three concentrations, 3-4 tissues each, read-out: pA2 value (Schild plot) (converted)",1000 nM
same,Ki,"[3]; from Schild plot pA2, read-out: Ki value corresponding to pA2 (converted)",1000 nM
"c1cnc2c(c1)ccc1cccnc12 [o-phenanthroline, reference compound]",effect on the 125I-CCK receptor binding assay,CCK receptor,no effect
"O=S(=O)(F)Cc1ccccc1 [phenylmethane sulfonyl fluoride, reference compound]",effect on the 125I-CCK receptor binding assay,CCK receptor,no effect

# Source: US4530790A, “Cholecystokinin antagonists” (Merck & Co., Inc., priority 1983, dated 1985)
